{"source": "patent US20200080053A1", "about": "“USE OF PEPTIDE COMPOUNDS FOR PROMOTING SURVIVAL, GROWTH AND CELL DIFFERENTIATION” (Axoltis Pharma, priority 2016, published 2020)", "type_in_all_cases": "cell-based", "key": {"[1]": {"system": "human mesenchymal stem cells (hMSC)", "assay": "Cell proliferation of hMSCs depending on the culture conditions", "conditions": "whatever the conditions / FBS concentration (2% or 10% FBS)", "excerpt": "Adult human bone marrow mononuclear cells Ficoll-extracted from two donors were obtained from Lonza. Cells were passaged once a week. The human mesenchymal stem cells (hMSC) were selected by plastic adherence and expanded by plating 50 000 cells/cm^2 in Modified Eagle Medium Alpha (MEMalpha, MacoPharma) supplemented with 10% Fetal Bovine Serum (FBS, PAA Laboratoires) and 0.1% Penicilline/Streptomycine (P/S, Lonza). The culture medium was changed after 3 days and then every day. After 2 to 5 weeks of culture at 37° C. in a humid environment and under 5% CO2, hMSC were harvested by trypsinization. The phenotype was confirmed by FACS analysis (BD Bioscience, BD LSR II) with CD73, CD90 and CD105 (positive), as well as CD34 and CD45 (negative) (Table 1).\n(§1) To investigate the neural differentiation capacity of the peptides, 25 cm^2 flasks and 12-wells culture plates were coated with sterile aqueous solutions of either NX210 or NS640 at a concentration of 80 μg/cm^2. Coatings were carried out at 37° C. and 5% CO2 over-night prior to cell plating.\nOn Day 0 (D0), hMSC were seeded at a concentration of 3,000 cells/cm^2 in pre-coated 25 cm^2 flasks or 12-well culture plates in complete medium and culture was placed at 37° C. in a humid environment and under 5% CO2. After 24h, medium was changed and replaced by different combinations of media containing either: MEMalpha—bFGF 12.5 ng/mL—FBS 2%—P/S 0.1%; MEMalpha—bFGF 12.5 ng/mL—FBS 10%—P/S 0.1%; MEMalpha—FBS 2%—P/S 0.1% (control condition); MEMalpha—FBS 10%—P/S 0.1% (control condition). The cells were placed at 37° C. in a humid environment and under 5% CO2, and medium was changed twice a week. […] thus was changed with: MEMalpha—ATRA […]—FBS 2%—P/S 0.1%; MEMalpha—ATRA 20 μM—FBS 10%—P/S 0.1%; MEMalpha—FBS 2%—P/S 0.1% (control condition); MEMalpha—FBS 10%—P/S 0.1% (control condition). The cells were placed at 37° C. in a humid environment and under 5% CO2. Medium was changed twice a week. On Day 15 (D15), cells were harvested by trypsinization for mRNA extraction or fixed immunocytochemical analysis."}, "[2]": {"system": "129S v/J embryonic stem cells (ESCs)", "assay": "Early differentiation of ESCs on gelatin without LIF and serum, nestin/MAP2 immunocytochemistry", "protocol": "129S v/J embryonic stem cells (ESCs) were seeded at a concentration of 0.7×10^6 cells in 35 mm diameter Petri dishes covered with a gelatin substrate.\nThe culture medium used was the Glasgow's minimal essential medium (G-MEM) supplemented with N2 supplement.\nTo enable differentiation of ESCs into neuroepithelial progenitors, the culture medium was deprived of LIF (Leukemia Inhibitory factor) because LIF is a key factor of the self-renewal of ESCs.\nThe various tests were carried out in absence of serum because serum limits the possibility to specifically orientate the differentiation and it could hide, or at least reduce, the effects of the peptide compound of the invention.\nESCs were grown in the culture medium as defined above with addition of 0.5 mg/ml NX210 (SEQ ID NO: 6) at day 1, 3 and 5.\nThen, cultures were fixed with 4% paraformaldehyde after 7 days of culture.\nTo analyze the differentiation of ESCs into neuroepithelial progenitors and into differentiated neurons, the various cell types were visualized by immunocytochemistry: • using a primary anti-nestin antibody (nestin=intermediate filament protein), specific of neuroepithelial progenitors, and • using a primary anti-MAP2 antibody (MAP2=microtubule associated protein 2), specific of dendrites, and thus specific of differentiated neurons.\nThe total number of cells was measured by labelling nuclei using bisbenzimide/Hoechst 33342, a fluorescent dye with an affinity for DNA that is commonly used to color nuclei in blue."}, "[3]": {"system": "human mesenchymal stem cells (hMSC)", "assay": "Neural differentiation of hMSCs: gene expression by real-time PCR", "protocol": "as §1\nOn Day 0 (D0), hMSC were seeded at a concentration of 3,000 cells/cm^2 in pre-coated 25 cm^2 flasks or 12-well culture plates in complete medium and culture was placed at 37° C. in a humid environment and under 5% CO2. After 24h, medium was changed and replaced by different combinations of media containing either: MEMalpha—bFGF 12.5 ng/mL—FBS 2%—P/S 0.1%; MEMalpha—bFGF 12.5 ng/mL—FBS 10%—P/S 0.1%; MEMalpha—FBS 2%—P/S 0.1% (control condition); MEMalpha—FBS 10%—P/S 0.1% (control condition). The cells were placed at 37° C. in a humid environment and under 5% CO2, and medium was changed twice a week. On Day 8, medium was replaced by medium containing ATRA in the place of bFGF and thus was changed with: MEMalpha—ATRA […]—FBS 2%—P/S 0.1%; MEMalpha—ATRA 20 μM—FBS 10%—P/S 0.1%; MEMalpha—FBS 2%—P/S 0.1% (control condition); MEMalpha—FBS 10%—P/S 0.1% (control condition). The cells were placed at 37° C. in a humid environment and under 5% CO2. Medium was changed twice a week. […]\nTotal RNA was extracted using RNAeasy total purification kit following instructions of the manufacturer (Qiagen). cDNA were generated using a High-Capacity cDNA Reverse Transcription kit (Applied Biosystems) as described by the manufacturer.\nThe expression levels of genes (GFAP, Musashi 1, Nestin, Beta3-Tubuline, MAP-2 and GAPDH) were analyzed by real-time PCR using TaqMan gene Expression Master Mix (Applied Biosystems) on the Applied Biosystems 7900 Real time PCR system (Life technologies). Samples were analyzed in triplicates. Data were normalized using the GAPDH gene as an internal control and relative quantification (RQ) of the genes in a sample was determined according to the equation 2^−Δct."}}, "note": "“Also recorded” adds a separate entry of the source."}
{"substance": "W-S-G-W-S-S-C-S-R-S-C-G (WSGWSSCSRSCG) [NX210]", "values": [{"measurement": "effect on cell proliferation (number of MSCs)", "setting": "[1]", "value": "no effect"}, {"measurement": "population of ESCs expressing the nestin protein", "setting": "[2]; 0.5 mg/ml NX210, 7 days of culture on gelatin, compared to culture in the absence of NX210", "value": "reduced; also recorded: few Nestin+cells"}, {"measurement": "cells expressing the MAP2 protein (differentiated neurons)", "setting": "[2]; 0.5 mg/ml NX210, 7 days of culture, no MAP2 cells in the absence of NX210", "value": "some cells expressing the MAP2 protein"}, {"measurement": "orientation of ESCs to the neuronal differentiation pathway", "setting": "[2]; 0.5 mg/ml NX210, in terms of kinetics", "value": "induces a preferential orientation of ESCs to the neuronal differentiation pathway"}, {"measurement": "MAP2+ cells in ESCs (FIG. 2)", "setting": "[2]; after 5 days in the presence of 0.5 mg/ml NX210, compared to control culture", "value": "only observed in presence of NX210"}, {"measurement": "effect of peptide coating on the increase in Nestin, βIII-Tubulin and MAP-2 gene expression", "setting": "[3]; bFGF then ATRA, 2% FBS, peptide coating 80 μg/cm2", "value": "does not modify this increase"}, {"measurement": "MAP-2 expression", "setting": "[3]; bFGF then ATRA, 10% FBS, peptide coating, vs ×0.75 without peptide (FIG. 5)", "value": 1.21, "unit": "×"}, {"measurement": "Nestin expression", "setting": "[3]; bFGF then ATRA, 10% FBS, peptide coating, vs ×1.2 without peptide (FIG. 5)", "value": 2, "unit": "×"}, {"measurement": "Nestin expression", "setting": "[3]; patient no 1, day 5, bFGF 10% without ATRA (FIG. 6)", "value": 2, "unit": "×"}, {"measurement": "MAP-2 expression", "setting": "[3]; patient no 2, D5, with bFGF (FIG. 7)", "value": "increased"}, {"measurement": "βIII-Tubuline expression", "setting": "[3]; patient no 2, after 5 days of culture, with bFGF (FIG. 7)", "value": "maximized"}, {"measurement": "Nestin expression", "setting": "[3]; patient no 2, bFGF 10% without ATRA, with or without coating (FIG. 7)", "value": 1.95, "unit": "×"}]}
